From paper PMC9182141, “Assay Development and Identification of the First Plasmodium falciparum 7,8-dihydro-6-hydroxymethylpterin-pyrophosphokinase Inhibitors” (Molecules, 2022)
Structures can show the parent of a compound that is named as a salt.

Assays:
[1] = tested on: Plasmodium falciparum TM4/8.2 (drug sensitive); assay: Antimalarial activity, [3H]-hypoxanthine incorporation assay, TM4/8.2; assay type: cell-based; details: P. falciparum TM4/8.2 (drug sensitive), when no IC50 could be determined, highest tested concentration noted
Protocol: (§1) Finally, the various hit compounds were tested for their antimalarial activity against P. falciparum TM4/8.2 [26] and V1/S [27] strains. Parasite cultures were treated with test compounds at different concentrations, and antimalarial activity was measured using [3H]-hypoxanthine incorporation assay, according to our previously reported protocol. […] IC50 values could not be measured for other compounds. At this stage, there is no explanation for the difference in antiparasitic activity observed between TM4/8.2 and V1/S strains, and more investigations would be needed to conclude on this effect.
(§2) Compounds were tested for their antimalarial activity against P. falciparum TM4/8.2 [26] and V1/S [27] strains according to our previously reported protocol. In brief, parasite strains were maintained continuously in human erythrocytes in RPMI1640 supplemented with 25 mM HEPES pH 7.4, 0.2% NaHCO3, 40 µg/mL gentamicin and 8% human serum at 37 °C under 3% CO2. For in vitro antimalarial assay, parasite was treated with serial dilutions of the inhibitors, and parasite survival was determined using a modified microdilution radioisotope technique.

[2] = tested on: Plasmodium falciparum V1/S (drug resistant); assay: Antimalarial activity, [3H]-hypoxanthine incorporation assay, V1/S; assay type: cell-based; details: P. falciparum V1/S (drug resistant), when no IC50 could be determined, highest tested concentration noted
Protocol: as §1, §2

[3] = tested on: Vero cell line (African green monkey kidney cells); assay: Cytotoxicity, sulforhodamine B assay, Vero cells; assay type: cell-based; details: Chlorocebus sabaeus, 72 h, when no IC50 could be determined, highest tested concentration noted
PfHPPK-GFP [4] = biological target: T1, PfHPPK-GFP (Plasmodium falciparum, UniProt Q25704); assay: KinaseGlo enzyme inhibition assay; assay type: biochemical; details: 1 mM compound, 10 μM HMDP and 10 μM ATP, 20 min at RT; read-out: Inhib. at 1 mM (%)
T1 sequence (Q25704 entry or part of it): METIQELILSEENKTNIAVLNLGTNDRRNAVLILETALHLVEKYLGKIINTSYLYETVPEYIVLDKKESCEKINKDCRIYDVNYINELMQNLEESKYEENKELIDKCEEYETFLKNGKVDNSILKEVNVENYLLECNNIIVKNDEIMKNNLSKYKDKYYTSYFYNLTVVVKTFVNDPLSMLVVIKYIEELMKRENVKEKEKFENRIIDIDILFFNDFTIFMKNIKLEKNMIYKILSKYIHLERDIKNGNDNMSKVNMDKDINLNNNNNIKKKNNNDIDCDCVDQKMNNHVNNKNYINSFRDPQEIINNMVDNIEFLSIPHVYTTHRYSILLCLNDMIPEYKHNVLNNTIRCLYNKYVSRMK
Protocol: For all the compounds displaying a measurable change of Tm, PfHPPK inhibition was recorded at 10 μM HMDP and ATP and 1 mM compound using the KinaseGlo assay. These conditions were chosen to be in the reported Km range for both HMDP and ATP substrates, enabling detection of both competitive and uncompetitive inhibitors. Compounds were incubated with HMDP, ATP and HPPK-GFP for 20 min at RT, followed by addition of the KinaseGlo reagent. After 10 min equilibration, luminescence was recorded, which directly reflects the quantity of ATP left in solution at the end of the reaction. Percentages of inhibition were calculated based on a DMSO positive control and a negative control lacking HPPK-GFP. Compounds structures, ΔTm and levels of inhibition appear in Table 1 and Table 2.
PfHPPK-GFP inhibition assay was carried using the KinaseGlo Plus kit (Promega, Madison, WI, USA). In a black 96-well plate were dispensed test compounds (1 μL of 50 mM DMSO stock), master mix (100 mM Tris pH 9, 10 mM β-mercapto ethanol, 10 mM MgSO4, 0.01% w/v BSA, 10 μM HMDP and 10 μM ATP). Reaction was initiated by addition of 2 μg of enzyme, reaching a total reaction volume of 50 μL, and reaction was allowed to proceed for 20 min at RT shaking at 300 rpm. Reaction was then quenched by addition of 50 μL KinaseGlo reagent and allowed to equilibrate for 10 min at RT shaking at 300 rpm. Luminescence was recorded on a Biotek Synergy H1 plate reader (Agilent, Santa Clara, CA, USA) using an integration time of 1 s per well. Percentage of inhibition was calculated related to a positive control experiment (no enzyme added) and a negative control experiment (no inhibitor added).

PfHPPK-GFP [5] = biological target: T1, PfHPPK-GFP; assay: DSF-GTP (GFP-tagged protein differential scanning fluorimetry) thermal shift; assay type: binding; details: read-out: ΔTm (°C)
Protocol: In a preliminary screening experiment, buffer conditions were investigated, searching for conditions that provide the largest thermal shift in the presence of 1 mM ATP. DSF curves were recorded under a total of 17 different conditions, with variations in buffer nature and pH, salts nature and concentration, effect of reducing agent, MgSO4 and glycerol.
From there, protein binding properties of the hit compounds were assessed experimentally using the developed DSF-GTP assay. A total of 54 compounds were tested, including virtual screening hits and closely related structures. According to our protocol, each compound was mixed with PfHPPK-GFP and submitted to a temperature gradient from 30 °C to 90 °C at 1 °C/min while GFP fluorescence was recorded. The first derivative of the resulting curve was used to determine the melting temperature (Tm). For each set of experiments, a negative control containing DMSO was added, and ΔTm values were calculated for each compound vs. the DMSO control. […] Two compound families were identified as the most promising by our DSF-GTP assay: 5-phenylazo-2,4-diaminopyrimidines (series 1) and phenyltriazolyl-2-amino-4-pyrimidinone (series 2). In series 2, linkers of different lengths that separate the phenyl triazolyl and the pyrimidine moieties were included.
In a typical DSF-GTP experiment, a master mix containing buffer and PfHPPK-GFP was prepared in a microcentrifuge tube, corresponding to a final protein concentration of 20 μg/mL. Ligands of interest were dispensed in low-profile 96-well plates (Bio-Rad) to 1 mM final concentration, and the master mix was dispensed to a final volume of 50 μL per well. In these conditions, DMSO content was maintained constant at 2%. The microplate was sealed with adhesive film and mixed by shaking for 2 min at 800 rpm at RT. The microplate was then submitted to a DSF run on a CFX96 RT-PCR (Bio-Rad, Hercules, CA, USA). DSF program was designed by starting with a 3 min equilibration phase at 30 °C, followed by a temperature gradient of 1 °C/min until 90 °C, recording fluorescence every 0.5 °C. Fluorescence was recorded using the FAM channel (λex = 450–490 nm, λem = 510–530 nm). Curves were fitted using the Precision Melt Analysis software (Bio-Rad).

[6] = tested on: KB cell line (human epithelial carcinoma cells); assay: Cytotoxicity, sulforhodamine B assay, KB cells; assay type: cell-based; details: 72 h, when no IC50 could be determined, highest tested concentration noted
[7] = Metabolic stability in human liver microsomes; details: for microsomal CLint: human, liver microsomes
Protocol: (§3) Intrinsic clearance was also measured in both human and rat liver microsomes in order to assess sensitivity to metabolic degradation.
(§4) Metabolic stability of test compounds was determined in human and rat liver microsomes. The assay was adapted from a previously published method. Briefly, the test compounds were mixed with liver microsomes, and the metabolic reactions were initiated by the addition of NADPH. Acetonitrile containing an internal standard (labetalol) was added at 0, 5, 10, 30, and 60 min to stop the reactions. Samples were processed, and the remaining compounds in the reactions were detected using a LC-MS/MS. Distribution coefficient, solubility and polar surface area were predicted using Marvin software. Partition coefficient was predicted using ACD/Labs software.

[8] = Metabolic stability in rat liver microsomes; details: for microsomal CLint: rat, liver microsomes
Protocol: as §3, §4

PfHPPK = tested on: PfHPPK; design: method as in PMID 19631695; details: substrate of monofunctional PfHPPK; cited from earlier work

SMILES	IC50 [1] [µM]	IC50 [2] [µM]	IC50 ([2]; Plasmodium falciparum) [µM]	IC50 [3] [µM]	inhibition at 1000 µM (PfHPPK-GFP [4]) [%]	ΔTm at 1000 µM (PfHPPK-GFP [5]) [°C]	IC50 [6] [µM]	microsomal CLint [7] [µL/min/mg]	microsomal CLint [8] [µL/min/mg]	CLint (HLM) ([7]; human liver microsomes, NADPH) [µL/min/mg]	CLint (RLM) ([8]; rat liver microsomes, NADPH) [µL/min/mg]	Km (PfHPPK) [µM]
COc1nc(N)nc(N)c1/N=N/c1cccc([N+](=O)[O-])c1 [Compound 1, (E)-6-Methoxy-5-((3-nitrophenyl)diazenyl)pyrimidine-2,4-diamine]	> 100	21	21	> 100	2.5 ± 1.4	-1	> 100					
COC(=O)c1cccc(/N=N/c2c(N)nc(N)nc2Cl)c1 [Compound 2, Methyl (E)-3-((2,4-diamino-6-chloropyrimidin-5-yl)diazenyl) benzoate]	> 100	89.2	89.2	> 100	11 ± 4.8	-1	> 100					
COc1nc(N)nc(N)c1/N=N/c1cccc(C(=O)O)c1 [Compound 3, (E)-3-((2,4-Diamino-6-methoxypyrimidin-5-yl)diazenyl) benzoic acid]	> 50		> 50	> 100	23.3 ± 4.8	-1	> 100	< 3	< 3			
Nc1nc(N)c(/N=N/c2ccccc2)c(N)n1 [Compound 4, (E)-5-(Phenyldiazenyl)pyrimidine-2,4,6-triamine]	75.4		> 50	29.6	46 ± 7.5	-1	62.4	363	82.4			
Nc1nc(N)c(/N=N/c2cccc(C(=O)O)c2)c(N)n1 [Compound 5, (E)-3-((2,4,6-Triaminopyrimidin-5-yl)diazenyl)benzoic acid]	> 10		> 10		14.6 ± 3.2	-1						
Cc1nc(N)[nH]c(=O)c1Cc1cn(-c2ccc(C(=O)O)cc2)nn1 [Compound 6, 2-Amino-6-methyl-5-((1-(4-(carboxy)phenyl)-1H-1,2,3-triazol-4-yl)methyl)pyrimidin-4(3H)-one]	> 25		> 25	> 25	1.8 ± 0.6	-1	> 25					
Cc1nc(N)[nH]c(=O)c1Cc1cn(-c2cccc(C(=O)O)c2)nn1 [Compound 7, 2-Amino-6-methyl-5-((1-(3-(carboxy)phenyl)-1H-1,2,3-triazol-4-yl)methyl)pyrimidin-4(3H)-one]	> 25		> 25	> 25	9.2 ± 1.5	-1	> 25					
CCc1nc(N)[nH]c(=O)c1Cc1cn(-c2ccc(C(=O)O)cc2)nn1 [Compound 8, 2-Amino-6-ethyl-5-((1-(4-(carboxy)phenyl)-1H-1,2,3-triazol-4-yl)methyl)pyrimidin-4(3H)-one]	> 50		> 50	> 50	6.9 ± 2	-1.2 ± 0.3	> 50					
CCc1nc(N)[nH]c(=O)c1Cc1cn(-c2cccc(C(=O)O)c2)nn1 [Compound 9, 2-Amino-6-ethyl-5-((1-(3-(carboxy)phenyl)-1H-1,2,3-triazol-4-yl)methyl)pyrimidin-4(3H)-one]	> 50		> 50	> 50	16.4 ± 2.9	-1	> 50					
CCc1nc(N)[nH]c(=O)c1Cc1cn(-c2cccc([N+](=O)[O-])c2)nn1 [Compound 10, 2-Amino-6-ethyl-5-((1-(3-(nitro)phenyl)-1H-1,2,3-triazol-4-yl)methyl)pyrimidin-4(3H)-one hydrochloride]	> 50		> 50	> 50	12.1 ± 4	-1.2 ± 0.3	> 50					
CCc1nc(N)[nH]c(=O)c1CCc1cn(-c2ccc(C(=O)O)cc2)nn1 [Compound 11, 2-Amino-6-ethyl-5-(2-(1-(4-(carboxy)phenyl)-1H-1,2,3-triazol-4-yl)ethyl)pyrimidin-4(3H)-one hydrochloride]	> 50		> 50	> 50	34.9 ± 5.5	-1.3 ± 0.3	> 50	< 3	6.91			
CCc1nc(N)[nH]c(=O)c1CCc1cn(-c2cccc(C(=O)O)c2)nn1 [Compound 12, 2-Amino-6-ethyl-5-(2-(1-(3-(carboxy)phenyl)-1H-1,2,3-triazol-4-yl)ethyl)pyrimidin-4(3H)-one hydrochloride]	> 50		> 50	> 50	24.5 ± 2.3	-1.3 ± 0.3	> 50					
CCc1nc(N)[nH]c(=O)c1CCCc1cn(-c2ccc(C(=O)O)cc2)nn1 [Compound 13, 2-Amino-6-ethyl-5-(3-(1-(4-(carboxy)phenyl)-1H-1,2,3-triazol-4-yl)propyl)pyrimidin-4(3H)-one hydrochloride]	> 50		> 50	> 50	24.9 ± 3.1	-1.5	> 50	< 3	7.38			
CCc1nc(N)nc(N)c1OCCCOc1ccccc1CCC(=O)O [Compound P218, reference compound]										<3	<3	
Nc1nc(O)c2c(n1)NCC(CO)=N2 [HMDP, 2-amino-4-hydroxy-6-hydroxymethyl-7,8-dihydropteridine]												2.1
